Values joined by “and” are separate entries in the source; they are usually repeats but may differ in a detail not shown here. Equal entries are not always repeated. Where two headings read alike, the source gives them in different places.
Assays:
TK1 = target: T1, TK1 (Homo sapiens, UniProt P04183); conditions: substrate activity; literature (Johansson et al.; Eriksson et al., BBCR 1991; 176, 586), source per Table 3; cited from earlier work
T1 sequence (P04183 1-234): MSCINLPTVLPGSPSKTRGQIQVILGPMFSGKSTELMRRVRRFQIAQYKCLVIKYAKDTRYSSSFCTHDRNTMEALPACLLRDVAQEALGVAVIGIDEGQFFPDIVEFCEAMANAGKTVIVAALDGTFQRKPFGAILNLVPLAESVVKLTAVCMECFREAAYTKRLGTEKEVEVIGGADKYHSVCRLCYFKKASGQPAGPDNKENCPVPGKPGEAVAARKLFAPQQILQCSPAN

TK2 = target: T2, TK2 (Homo sapiens, UniProt O00142); design: unit not given here; conditions: substrate activity, literature (Johansson et al.; Eriksson et al.; Wang et al.), source per Table 3, cited from earlier work
T2 sequence (O00142 34-265): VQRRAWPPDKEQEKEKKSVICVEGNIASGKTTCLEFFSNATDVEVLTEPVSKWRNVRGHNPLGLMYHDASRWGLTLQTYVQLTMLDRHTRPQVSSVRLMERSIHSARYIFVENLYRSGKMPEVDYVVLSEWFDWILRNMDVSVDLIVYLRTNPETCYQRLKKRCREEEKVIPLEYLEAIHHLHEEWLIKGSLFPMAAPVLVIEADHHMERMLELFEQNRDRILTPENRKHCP

[1] = target: deoxycytidine kinase (dCK) (Homo sapiens, UniProt P27707); conditions: substrate activity; literature (Johansson et al.; Eriksson et al.; Wang et al.), source per Table 3; cited from earlier work
Sequence of deoxycytidine kinase (dCK) (P27707 whole entry, species assumed): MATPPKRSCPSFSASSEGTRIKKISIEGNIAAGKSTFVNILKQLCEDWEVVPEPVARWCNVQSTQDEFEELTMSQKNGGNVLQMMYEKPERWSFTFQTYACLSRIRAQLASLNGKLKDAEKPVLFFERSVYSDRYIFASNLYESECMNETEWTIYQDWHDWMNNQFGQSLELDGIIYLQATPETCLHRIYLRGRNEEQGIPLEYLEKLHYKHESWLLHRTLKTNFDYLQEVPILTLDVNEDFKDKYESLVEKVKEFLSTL

tubulin = experiment: Fluorescence-based microtubule polymerization assay (MPA); format: biochemical; conditions: mean percentage of paclitaxel or vinblastine activity; 0.75-10 micromolar
Text: Drug-linker constructs may further be screened using functional assays predictive of biological activity. […] Tubulin assembly or inhibition thereof may be monitored by fluorescence using the CytoDYNAMIX Screen™ 10 kit available from Cytoskeleton (1830 S. Acoma St., Denver, Colo.). […] Emission is monitored at 405 nm with excitation at 360 nm. […] Tubulin assembly or inhibition may also be monitored by light scattering which is approximated by the apparent absorption at 350 nm. For paclitaxel drug conjugates BSA is employed to prevent aggregation and glycerol, which is a tubulin polymerization enhancer, is omitted from the kit to increase the signal to noise ratio.
The assay kit (#BK011) was purchased from Cytoskeleton (Denver, Colo.). The assays were carried out according to the manufacturer's instructions, except that 1 mg/ml BSA (Sigma #A3059) was included in all assays. […] Parent drugs and conjugates were tested at 0.75, 1.5, 3 and 10 micromolar final concentration and results represent a comparison of conjugate and parent drug curves obtained from the linear range of the dose responses.

Compound	TK1 (TK1)	TK2 (TK2)	dCK [1]	also measured
O=c1[nH]c(=O)n([C@@H]2O[C@H](CO)[C@@H](O)[C@@H]2F)cc1I [R2 = I, R5 = F (FIAU), FIAU]	42	90		
Cc1cn([C@@H]2O[C@H](CO)[C@@H](O)[C@H]2O)c(=O)[nH]c1=O [R4 = OH, R3 = OH (RiboThymidine), RiboThymidine]	2	3		
C#C[C@H]1C[C@H](n2cc(C)c(=O)[nH]c2=O)O[C@@H]1CO [R4 = H, R3 = CCH]	<1	<1		
CCc1cn([C@H]2C[C@H](O)[C@@H](CO)O2)c(=O)[nH]c1=O [R2 = Et, R4 = H, R3 = OH]	80	10		
Nc1ccn([C@@H]2O[C@H](CO)[C@@H](O)[C@@H]2O)c(=O)n1 [R4 = H, R5 = OH, R3 = OH (Cytosar, AraC), AraC]	<1	<1		
O=c1[nH]c(=O)n([C@H]2C[C@H](O)[C@@H](CO)O2)cc1F [R2 = F, R4 = H, R3 = OH]	90	90		
O=c1[nH]c(=O)n([C@H]2C[C@H](O)[C@@H](CO)O2)cc1Br [R2 = Br, R4 = H, R3 = OH]	80	10	<1	
O=c1ccn([C@H]2CC[C@@H](CO)O2)c(=O)[nH]1 [R2 = H, R4 = H, R3 = H (ddU), ddU]	10	2	<1	
Cc1cn([C@H]2C[C@H](F)[C@@H](CO)O2)c(=O)[nH]c1=O [R4 = H, R3 = F (FLT), FLT]	30	<1	<1	
Cc1cn([C@@H]2O[C@H](CO)[C@@H](O)[C@@H]2F)c(=O)[nH]c1=O [R2 = CH3, R5 = F (FMAU), FMAU]	45	100		
O=c1ccn([C@H]2C[C@H](O)[C@@H](CO)O2)c(=O)[nH]1 [R2 = H, R4 = H, R3 = OH (dU), dU]	100	100	6	
Cc1cn([C@H]2CC[C@@H](CO)O2)c(=O)[nH]c1=O [R4 = H, R3 = H]	40	4	<1	
Cc1cn([C@H]2C[C@H](N=[N+]=[N-])[C@@H](CO)O2)c(=O)[nH]c1=O [R4 = H, R3 = N3 (AZT), AZT]	50 and 40	5	<1	
Cc1cn([C@H]2C[C@H](CN=[N+]=[N-])[C@@H](CO)O2)c(=O)[nH]c1=O [R4 = H, R3 = CH2N3]	15	3		
Cc1cn([C@H]2C[C@H](O)[C@@H](CO)O2)c(=O)[nH]c1=O [R4 = H, R3 = OH (Thy), Thy]	100	100	2	
CC[C@]1(O)C[C@@H]2CN(CCc3c([nH]c4ccccc34)[C@@](C(=O)OC)(c3cc4c(cc3OC)N(C)[C@H]3[C@@](O)(C(=O)NN)[C@H](O)[C@]5(CC)C=CCN6CC[C@]43[C@@H]65)C2)C1 [Desacetylvinblastine monohydrazine]				Ave. MPA Act (tubulin): C (C>100)
Nc1ccn([C@H]2C[C@H](O)[C@@H](CO)O2)c(=O)n1 [R4 = H, R5 = H, R3 = OH (dC), dC]	<1	90		TK2 (TK2; listed as R2 = H, X = C (dC)): 90; TK2 (TK2; listed as R4 = H, R5 = H, R2 = H (dC)): 90; TK2 (TK2; listed as β-D-dC): 93
CC[C@]1(O)C[C@@H]2CN(CCc3c([nH]c4ccccc34)[C@@](C(=O)OC)(c3cc4c(cc3OC)N(C)[C@H]3[C@@](O)(C(=O)NCCCCCCNC(=O)OC(C)(C)C)[C@H](O)[C@]5(CC)C=CCN6CC[C@]43[C@@H]65)C2)C1 [VBL-3Am-ALK(6)-NH(B)]				Ave. MPA Act (tubulin): A (A<60)
Nc1cc[nH]c(=O)n1 [R4 = OH, R5 = H, R2 = H (Cytosine), Cytosine]	<1	<1	20	
C=CCOC(=O)O[C@@H](C(=O)O[C@H]1C[C@@]2(O)[C@@H](OC(=O)c3ccccc3)[C@@H]3[C@]4(OC(C)=O)CO[C@@H]4C[C@H](O)[C@@]3(C)C(=O)[C@H](OC(C)=O)C(=C1C)C2(C)C)[C@@H](NC(=O)c1ccccc1)c1ccccc1 [PXL-2′Alloc]				Ave. MPA Act (tubulin): A (A<60)

Source: patent publication US20050148534A1, “Small molecule compositions and methods for increasing drug efficiency using compositions thereof” (priority 2003, published 2005)
